This note sets out measurements from PubChem BioAssay AID258 (DTP/NCI, 2004).

For the assay, the system named is CD2F1 mice, L1210 leukemia sc, survival T/C. Nature of the assay: NCI In Vivo Anticancer Drug Screen. Data for tumor model L1210 Leukemia (subcutaneous) in CD2F1 (CDF1) mice. The note with it: endpoint: median survival time, higher = longer survival. A digest of the protocol:
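T/C ratio: treated-group survival or tumor size over vehicle-control group measurement, in mice carrying transplanted tumors.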

Each structure is given as a SMILES string. Where “and” joins values, the source holds several entries; their conditions need not be identical. Equal entries are not always repeated. Inconclusive results and toxic doses are left out.

Consider `O=c1[nH]c(=O)n(C2CC(O)C(CO)O2)cc1F` (centres undefined), for which the T/C by setting is: (dose: 5.0 mg/kg/injection, schedule: Q01DX009 (ip), vehicle: saline) 107 % of control; (dose: 5.0 mg/kg/injection, schedule: Q01DX009 (sc), vehicle: saline) 104 % of control; (dose: 10.0 mg/kg/injection, schedule: Q01DX009 (ip), vehicle: saline) 108 % of control; (dose: 10.0 mg/kg/injection, schedule: Q01DX009 (sc), vehicle: saline) 109 % of control; (dose: 15.6 mg/kg/injection, schedule: Q01DX006 (ip), vehicle: saline) 112 % of control; (dose: 15.6 mg/kg/injection, schedule: Q01DX009 (ip), vehicle: saline) 118 % of control. In addition, the T/C runs as follows: (dose: 20.0 mg/kg/injection, schedule: Q01DX009 (ip), vehicle: saline) 119 % of control; (dose: 20.0 mg/kg/injection, schedule: Q01DX009 (sc), vehicle: saline) 106 % of control and 121 % of control; (dose: 30.0 mg/kg/injection, schedule: Q01DX009 (sc), vehicle: saline) 107 % of control; (dose: 31.3 mg/kg/injection, schedule: Q01DX006 (ip), vehicle: saline) 106 % of control; (dose: 31.3 mg/kg/injection, schedule: Q01DX009 (ip), vehicle: saline) 118 % of control; (dose: 31.3 mg/kg/injection, schedule: Q02DX005 (ip), vehicle: saline) 112 % of control. In addition, the T/C is 112 % of control (dose: 31.3 mg/kg/injection, schedule: Q04DX003 (ip), vehicle: saline); 122 % of control (dose: 40.0 mg/kg/injection, schedule: Q01DX009 (ip), vehicle: saline); 122 % of control (dose: 40.0 mg/kg/injection, schedule: Q01DX009 (sc), vehicle: saline); 124 % of control (dose: 60.0 mg/kg/injection, schedule: Q01DX009 (ip), vehicle: saline); 112 % of control (dose: 62.5 mg/kg/injection, schedule: Q01DX001 (ip), vehicle: saline); 100 % of control (dose: 62.5 mg/kg/injection, schedule: Q04DX003 (ip), vehicle: saline). In addition, the T/C (dose: 80.0 mg/kg/injection, schedule: Q01DX009 (ip), vehicle: saline) is 118 % of control; the T/C (dose: 120.0 mg/kg/injection, schedule: Q01DX009 (ip), vehicle: saline) is 110 % of control; the T/C (dose: 120.0 mg/kg/injection, schedule: Q01DX009 (sc), vehicle: saline) was 106 % of control; the T/C (dose: 125.0 mg/kg/injection, schedule: Q01DX001 (ip), vehicle: saline) is 112 % of control; the T/C (dose: 125.0 mg/kg/injection, schedule: Q01DX009 (ip), vehicle: saline) was 150 % of control; the T/C (dose: 125.0 mg/kg/injection, schedule: Q02DX005 (ip), vehicle: saline) is 118 % of control. The T/C (dose: 125.0 mg/kg/injection, schedule: Q04DX003 (ip), vehicle: saline) is 112 % of control; the T/C (dose: 130.0 mg/kg/injection, schedule: Q01DX Z (sc), vehicle: saline) was 116 % of control; the T/C (dose: 160.0 mg/kg/injection, schedule: Q01DX009 (ip), vehicle: saline) was 106 % of control and 123 % of control; the T/C (dose: 160.0 mg/kg/injection, schedule: Q01DX009 (sc), vehicle: saline) was 112 % of control; the T/C (dose: 216.0 mg/kg/injection, schedule: Q01DX Z (sc), vehicle: saline) was 116 % of control; the T/C (dose: 240.0 mg/kg/injection, schedule: Q01DX009 (ip), vehicle: saline) is 96 % of control. The T/C (dose: 250.0 mg/kg/injection, schedule: Q01DX006 (ip), vehicle: saline) is 162 % of control; the T/C (dose: 250.0 mg/kg/injection, schedule: Q01DX009 (ip), vehicle: saline) was 162 % of control; the T/C (dose: 250.0 mg/kg/injection, schedule: Q02DX005 (ip), vehicle: saline) was 150 % of control; the T/C (dose: 360.0 mg/kg/injection, schedule: Q01DX Z (sc), vehicle: saline) is 116 % of control; the T/C (dose: 500.0 mg/kg/injection, schedule: Q02DX005 (ip), vehicle: saline) is 156 % of control; the T/C (dose: 500.0 mg/kg/injection, schedule: Q04DX003 (ip), vehicle: saline) was 150 % of control. In addition, the T/C runs as follows: (dose: 600.0 mg/kg/injection, schedule: Q01DX Z (sc), vehicle: saline) 108 % of control; (dose: 1000.0 mg/kg/injection, schedule: Q01DX001 (ip), vehicle: saline) 150 % of control.
Take `O=NN(CCCl)C(=O)NC12CC3CC(CC(C3)C1)C2`: the T/C is 100 % of control (dose: 6.25 mg/kg/injection, schedule: Q01DX Z (sc), vehicle: carboxymethylcellulose (CMC)); 100 % of control (dose: 12.5 mg/kg/injection, schedule: Q01DX Z (sc), vehicle: carboxymethylcellulose (CMC)); 110 % of control (dose: 25.0 mg/kg/injection, schedule: Q01DX Z (sc), vehicle: carboxymethylcellulose (CMC)); 325 % of control (dose: 50.0 mg/kg/injection, schedule: Q01DX Z (sc), vehicle: carboxymethylcellulose (CMC)); 240 % of control (dose: 100.0 mg/kg/injection, schedule: Q01DX Z (sc), vehicle: carboxymethylcellulose (CMC)).
Regarding `CC[C@]1(O)C[C@H]2CN(CCc3c([nH]c4ccccc34)[C@@](C(=O)OC)(c3cc4c(cc3OC)N(C=O)[C@H]3[C@@](O)(C(=O)OC)[C@H](OC(C)=O)[C@]5(CC)C=CCN6CC[C@]43[C@@H]65)C2)C1`, the T/C is 98 % of control (dose: 0.15 mg/kg/injection, schedule: Q01DX009 (ip), vehicle: saline); 101 % of control (dose: 0.2 mg/kg/injection, schedule: Q01DX009 (ip), vehicle: saline); 98 % of control (dose: 0.25 mg/kg/injection, schedule: Q01DX009 (ip), vehicle: saline); 113 % of control (dose: 0.25 mg/kg/injection, schedule: Q01DX009 (sc), vehicle: saline); 108 % of control (dose: 0.5 mg/kg/injection, schedule: Q01DX009 (sc), vehicle: saline); 104 % of control and 92 % of control (dose: 0.75 mg/kg/injection, schedule: Q01DX009 (sc), vehicle: saline). The T/C is, setting by setting: (dose: 1.0 mg/kg/injection, schedule: Q01DX009 (sc), vehicle: saline) 102 % of control; (dose: 1.25 mg/kg/injection, schedule: Q01DX001 (iv), vehicle: water) 120 % of control; (dose: 1.25 mg/kg/injection, schedule: Q01DX001 (sc), vehicle: water) 120 % of control; (dose: 1.25 mg/kg/injection, schedule: Q01DX009 (sc), vehicle: saline) 111 % of control; (dose: 1.5 mg/kg/injection, schedule: Q01DX009 (sc), vehicle: saline) 107 % of control; (dose: 2.5 mg/kg/injection, schedule: Q01DX001 (iv), vehicle: water) 120 % of control. The T/C reads like this: (dose: 63.0 micrograms/kg/injection, schedule: Q01DX009 (ip), vehicle: saline) 101 % of control; (dose: 63.0 micrograms/kg/injection, schedule: Q01DX009 (sc), vehicle: saline) 103 % of control; (dose: 125.0 micrograms/kg/injection, schedule: Q01DX009 (ip), vehicle: saline) 98 % of control; (dose: 125.0 micrograms/kg/injection, schedule: Q01DX009 (sc), vehicle: saline) 103 % of control; (dose: 250.0 micrograms/kg/injection, schedule: Q01DX009 (ip), vehicle: saline) 96 % of control; (dose: 250.0 micrograms/kg/injection, schedule: Q01DX009 (sc), vehicle: saline) 107 % of control. Besides, the T/C (dose: 500.0 micrograms/kg/injection, schedule: Q01DX009 (ip), vehicle: saline) was 96 % of control and the T/C (dose: 500.0 micrograms/kg/injection, schedule: Q01DX009 (sc), vehicle: saline) was 114 % of control.
Consider `C[n+]1c2ccccc2nc2c(N)cc(N)cc21`, for which the T/C was 100 % of control (dose: 3.0 mg/kg/injection, schedule: Q01DX Z (ip), vehicle: water); 100 % of control (dose: 5.0 mg/kg/injection, schedule: Q01DX Z (ip), vehicle: water); 100 % of control (dose: 5.0 mg/kg/injection, schedule: Q01DX Z (sc), vehicle: water); 100 % of control (dose: 8.4 mg/kg/injection, schedule: Q01DX Z (ip), vehicle: water); 100 % of control (dose: 8.4 mg/kg/injection, schedule: Q01DX Z (sc), vehicle: water); 100 % of control (dose: 14.0 mg/kg/injection, schedule: Q01DX Z (ip), vehicle: water). In addition, the T/C was 100 % of control (dose: 14.0 mg/kg/injection, schedule: Q01DX Z (sc), vehicle: water); 100 % of control (dose: 23.0 mg/kg/injection, schedule: Q01DX Z (ip), vehicle: water); 111 % of control (dose: 23.0 mg/kg/injection, schedule: Q01DX Z (sc), vehicle: water); 111 % of control (dose: 39.0 mg/kg/injection, schedule: Q01DX Z (ip), vehicle: water); 111 % of control (dose: 39.0 mg/kg/injection, schedule: Q01DX Z (sc), vehicle: water).
